Laboratory results published in US5792765A, “Substituted oxazolidinones” (Bayer Aktiengesellschaft, priority 1996, dated 1998).
Values after ≈ are worked out from the molar mass of the structure shown. Where two headings read alike, the source gives them in different places.

Assays:
Type in all cases: cell-based
[1] = tested on: Mycobacterium smegmatis DSM 43061; assay: MIC by broth microdilution, rapidly growing mycobacteria; details: Mycolicibacterium smegmatis, DSM43061; strain DSM 43061; inoculum 2.20E + 04 /ml; 37° C., 2-4 days
Experimental: (§1) For rapidly growing mycobacteria the MIC determination was carried out following the broth microdilution method described by Swenson [cf. J. M. Swenson, C. Thomberry, U. A. Silcox, Rapidly growing mycobacteria. Testing of susceptibility to 34 antimicrobial agents by broth microdilution. Antimicrobial Agents and Chemotherapy Vol. 22, 186-192 (1982)]. A deviation from this was the brain-heart extract medium treated with 0.1% by volume of Tween 80.
(§2) The mycobacterial strains used were obtained from the DSM (German Collection of Microorganisms, Brunswick). They were incubated at 37° C. in a humid chamber.
(§3) The MIC values were read off after 2-4 days when the preparation-free controls had become turbid due to growth.

[2] = tested on: Mycobacterium smegmatis DSM 43078; assay: as above; details: Mycolicibacterium smegmatis, DSM43078; strain DSM 43078; inoculum 4.20E + 04 /ml; 37° C., 2-4 days
Experimental: as §1, §2, §3

Staph. 9TV = assay: MIC by serial dilution on Iso-Sensitest Agar; details: 37° C., about 20 hours
Experimental: (§4) The minimum inhibitory concentrations (MIC) were determined by serial dilution methods on Iso-Sensitest Agar (Oxoid). For each test substance, a number of agar plates were prepared which, with an in each case doubled dilution, contained decreasing concentrations of the active compound. The agar plates were inoculated with the multipoint inoculator (Denley). For inoculation, overnight cultures of the caustive organisms were used which had previously been diluted such that each inoculation point contained about 10^4 colony-forming particles. The inoculated agar plates were incubated at 37° C., and the microorganism growth was read off after about 20 hours. The MIC value (μg/ml) indicates the lowest active compound concentration at which no growth could be detected using the naked eye.

Psdm. Bonn = assay: MIC by serial dilution on Iso-Sensitest Agar
Experimental: as §4

Staph. 133 = assay: MIC by serial dilution on Iso-Sensitest Agar; details: 37° C., about 20 hours
Experimental: as §4

E. coli Neumann = assay: MIC by serial dilution on Iso-Sensitest Agar; details: Escherichia coli
Experimental: as §4

Klebs. 57 USA = assay: MIC by serial dilution on Iso-Sensitest Agar
Experimental: as §4

Staph. 48N = assay: MIC by serial dilution on Iso-Sensitest Agar; details: 37° C., about 20 hours
Experimental: as §4

Staph. 25701 = assay: MIC by serial dilution on Iso-Sensitest Agar; details: 37° C., about 20 hours
Experimental: as §4

[3] = tested on: Mycoplasma pneumoniae strain PI 1428; assay: MIC determination with Mycoplasma pneumoniae, serial microdilution; details: PI1428, PPLO medium, anaerobic, 37° C., Alamar Blue
Experimental: MIC determination with Mycoplasma pneumoniae
Mycoplasma pneumoniae strain PI 1428 was cultured under anaerobic conditions in PPLO medium, to which 1% glucose, 2.5% yeast extract, 20% horse serum (donor horse serum) and 0.002% Phenol Red were added. MIC determinations were carried out following the serial microdilution method in liquid medium described by ter Laak and coworkers (E. A. ter Laak, A. Pijpers, J. H. Noordergraaf, E. Schoevers, J. H. M. Verheijden: Comparison of Methods for in vitro Testing of Susceptibility of Porcine Mycoplasma Species to Antimicrobial Agents; Antimicrobial Agents and Chemotherapy, Vol. 35, 228-233 (1991)). At the time of the start of the colour change of the medium of the preparation-free control from red to yellow, 10% by volume of Alamar Blue was added. The incubation at 37° C. was continued for about 10 hours and the MIC defined as the value at which the medium having the smallest preparation concentration remained unchanged blue.

[4] = Psdm. Bonn, 37° C., about 20 hours, read-out: MIC
[5] = E. coli Neumann, 37° C., about 20 hours, read-out: MIC
[6] = Klebs. 57 USA, 37° C., about 20 hours, read-out: MIC

Row | SMILES | MIC [1] [µg/mL] | MIC [2] [µg/mL] | MIC (Staph. 9TV) [µg/mL] | MIC (Psdm. Bonn; [4]) [µg/mL] | MIC (Staph. 133) [µg/mL] | MIC (E. coli Neumann; [5]) [µg/mL] | MIC (Klebs. 57 USA; [6]) [µg/mL] | MIC (Staph. 48N) [µg/mL] | MIC (Staph. 25701) [µg/mL] | MIC [3] [µg/mL] | MIC (Psdm. Bonn; 20 h) [µg/mL] | MIC (E. coli Neumann; 20 h) [µg/mL] | MIC (Klebs. 57 USA; 20 h) [µg/mL]
1 | NNC(=O)c1ccncc1 [Isoniazide, reference compound] | 4 | 2 | – | – | – | – | – | – | – | – | – | – | –
2 | CNC(=S)NC[C@H]1CN(c2ccc3c(c2)sc(=O)n3C)C(=O)O1 [Example 20] | 0.25 | 0.25 | ≤ 0.125 | > 64 | 0.25 (≈ 0.709 µM) | 64 (≈ 182 µM) | > 64 | 0.25 (≈ 0.709 µM) | 0.25 (≈ 0.709 µM) | – | – | – | –
3 | CNC(=S)NC[C@H]1CN(c2ccc(-c3ccncc3)s2)C(=O)O1 [Example 12] | 8 | – | 0.5 (≈ 1.43 µM) | > 64 | – | > 64 | > 64 | 1 (≈ 2.87 µM) | 1 (≈ 2.87 µM) | 2 (≈ 5.74 µM) | – | – | –
4 | CC(=S)NC[C@H]1CN(c2ccc(-c3ccncc3)s2)C(=O)O1 [Example 13] | 2 | 1 | ≤ 0.125 | > 64 | 0.25 (≈ 0.75 µM) | > 64 | > 64 | – | 0.25 (≈ 0.75 µM) | 2 (≈ 6 µM) | – | – | –
5 | CNC(=S)NC[C@H]1CN(c2ccc3nc(SC)sc3c2)C(=O)O1 [Example 23] | – | – | 0.25 (≈ 0.678 µM) | > 64 | 0.25 (≈ 0.678 µM) | > 64 | > 64 | 0.5 (≈ 1.36 µM) | 0.5 (≈ 1.36 µM) | 4 (≈ 10.9 µM) | – | – | –
6 | CCC(=S)NC[C@H]1CN(c2ccc3ccsc3c2)C(=O)O1 [Example 11] | – | – | 0.25 (≈ 0.78 µM) | – | 0.5 (≈ 1.56 µM) | – | – | 0.5 (≈ 1.56 µM) | 0.25 (≈ 0.78 µM) | – | > 64 | > 64 | > 64
7 | CSc1nc2ccc(N3C[C@H](CNC(C)=S)OC3=O)cc2s1 [Example 26] | – | – | ≤ 0.125 | > 64 | < 0.125 | > 64 | > 64 | 0.25 (≈ 0.707 µM) | 0.25 (≈ 0.707 µM) | – | – | – | –
8 | CC(=S)NC[C@H]1CN(c2ccc3c(c2)sc(=O)n3C)C(=O)O1 [Example 42] | – | – | ≤ 0.125 | > 64 | < 0.125 | 64 (≈ 190 µM) | 64 (≈ 190 µM) | > 0.125 | > 0.125 | – | – | – | –
9 | CC(=S)NC[C@H]1CN(c2ccc(-c3cccnc3)s2)C(=O)O1 [Example 15] | 1 | 0.5 | ≤ 0.125 | > 64 | 0.25 (≈ 0.75 µM) | > 64 | > 64 | 0.5 (≈ 1.5 µM) | 0.25 (≈ 0.75 µM) | – | – | – | –
10 | CNC(=S)NC[C@H]1CN(c2ccc(-c3cccnc3)s2)C(=O)O1 [Example 14] | 8 | 4 | 0.5 (≈ 1.43 µM) | > 64 | 1 (≈ 2.87 µM) | > 64 | > 64 | 1 (≈ 2.87 µM) | 1 (≈ 2.87 µM) | 8 (≈ 23 µM) | – | – | –
11 | CC(=S)NC[C@H]1CN(c2cc3ccc(Cl)cc3s2)C(=O)O1 [Example 43] | – | – | 0.5 (≈ 1.47 µM) | > 64 | 0.5 (≈ 1.47 µM) | > 64 | > 64 | 0.5 (≈ 1.47 µM) | 0.5 (≈ 1.47 µM) | – | – | – | –
